# Test results: patent US20250115595A1, “INHIBITORS OF HYPOXIA-INDUCIBLE FACTORS” (The Johns Hopkins University, priority 2021, published 2025)
# Assays:
# [1] = test system: tumor immune microenvironment; test: Flow cytometry of immune cell populations in Hepa1-6 tumors; assay type: in vivo, mouse; conditions: 200-mm3 tumors, within 8 days
# Experimental: To analyze the mechanism by which 32-134D increased the response to anti-Pd1 therapy, tumor-bearing mice were treated with 32-134D or vehicle, and immune cell populations in well-established 200-mm^3 tumors were analyzed by flow cytometry.
# Hepa1-6 tumors were digested with collagenase (1 mg/ml) at 37° C. for 30 minutes and the resulting single cell suspension was passed through a 70-μm cell strainer and washed twice with cold PBS. Cells were resuspended in FC buffer for subsequent flow cytometry analysis. […]
# VEGF and ANGPTL4 mRNA = test: mRNA expression in hypoxic MIO-M1 cells; assay type: cell-based, human; conditions: hypoxia, 10 μM
# Experimental: It has previously been reported that the cells in the inner nuclear layer of the retina that express VEGF in response to hypoxia/ischemia are Müller glial cells (X. Xin et al., Proc Natl Acad Sci USA 110, E3425-3434 (2013)). […] The effects of 32-134D on HIF-1α accumulation persisted up to 16 hours after treatment of cultured cells (FIG. 27B).
# Reverse transcription and quantitative real-time PCR: Total RNA was isolated from cultured cells or retinas with PureLink™ RNA Mini Kit (Invitrogen #12183025), and cDNA was prepared with MuLV Reverse Transcriptase (Applied Biosystems). Quantitative real-time PCR was performed with Power SYBR Green PCR Master Mix (Applied Biosystems) and MyiQ Real-Time PCR Detection System (Bio-Rad). Normalization was done using cyclophilin A for mouse tissue and human cell lines.
structure (smiles),measurement,setting,value
"Brc1ccc2c(-c3csc(-c4c[nH]c5c(Br)cccc45)n3)c[nH]c2c1 [Compound 32-134D, 4-(6-bromo-1H-indol-3-yl)-2-(7-bromo-1H-indol-3-yl)thiazole]",percentage of Cd8+Ifng+ activated CTLs and Nk1.1+Cd3−Cd314+ activated NK cells,[1],significantly increased
same,percentage of Cd11b+F4/80+ tumor-associated macrophages and Cd11b+Ly6g+Ly6c− myeloid-derived suppressor cells,[1],decrease
same,mRNA expression of VEGF and ANGPTL4,VEGF and ANGPTL4 mRNA,potent inhibition
